Changes are numbered by the printed parent chain. Activity calls are given as the source filed them. The rule behind the calls is not given here.
Columns and labels:
[1] = molecular target: T1, 4,4'-diapophytoene desaturase (4,4'-diaponeurosporene-forming) (Staphylococcus aureus (strain MW2), UniProt Q8NUQ6); experiment: Inhibition of CrtN in methicillin-resistant Staphylococcus aureus USA400 MW2 assessed as reduction in staphyloxanthin levels after 48 hrs by spectrophotometric method-based pigment inhibition assay; parameters: species or system Staphylococcus aureus subsp. aureus MW2
T1 sequence (Q8NUQ6 whole entry): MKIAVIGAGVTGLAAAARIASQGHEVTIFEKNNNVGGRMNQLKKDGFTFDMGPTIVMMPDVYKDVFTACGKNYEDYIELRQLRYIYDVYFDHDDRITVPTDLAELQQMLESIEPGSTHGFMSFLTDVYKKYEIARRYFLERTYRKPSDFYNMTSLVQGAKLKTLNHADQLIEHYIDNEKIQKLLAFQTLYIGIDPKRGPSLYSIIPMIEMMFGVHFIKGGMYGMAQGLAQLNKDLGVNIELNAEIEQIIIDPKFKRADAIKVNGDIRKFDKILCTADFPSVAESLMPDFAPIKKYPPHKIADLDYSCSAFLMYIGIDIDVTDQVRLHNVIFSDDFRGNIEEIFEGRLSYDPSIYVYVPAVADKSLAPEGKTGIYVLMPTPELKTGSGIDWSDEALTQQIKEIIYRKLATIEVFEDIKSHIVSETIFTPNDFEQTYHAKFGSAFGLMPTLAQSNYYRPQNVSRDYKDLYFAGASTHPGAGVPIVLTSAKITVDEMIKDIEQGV

Staphylococcus aureus [2] = experiment: Induction of sensitization to immune clearance towards Staphylococcus aureus Mu50 infected in human whole blood assessed as bacterial killing by measuring bacterial survival after 6 hrs by serial dilution method relative to control; assay type: functional
Staphylococcus aureus [3] = experiment: Induction of sensitization to immune clearance towards Staphylococcus aureus USA400 MW2 infected in human whole blood assessed as bacterial killing by measuring bacterial survival after 6 hrs by serial dilution method relative to control; assay type: functional
[4] = molecular target: T1, 4,4'-diapophytoene desaturase (4,4'-diaponeurosporene-forming); experiment: Inhibition of CrtN in methicillin-resistant Staphylococcus aureus LAC USA300 assessed as reduction in staphyloxanthin levels after 48 hrs by spectrophotometric method-based pigment inhibition assay; parameters: species or system Staphylococcus aureus subsp. aureus USA300
Staphylococcus aureus [5] = experiment: Antibacterial activity against linezolid-resistant Staphylococcus aureus NRS271 infected in BALB/c mouse assessed as reduction of bacterial burden in liver at 0.1 mg, ip bid administered at 12 hrs prior to bacterial infection dosed at 12 intervals for 4.5 days; assay type: functional, organism-based
[6] = molecular target: T2, 4,4'-diapophytoene desaturase (4,4'-diaponeurosporene-forming) (Staphylococcus aureus (strain Newman), UniProt O07855); experiment: Inhibition of CrtN in linezolid-resistant Staphylococcus aureus NRS271 assessed as reduction in staphyloxanthin levels after 48 hrs by spectrophotometric method-based pigment inhibition assay
T2 sequence (O07855 whole entry): T1 sequence (Q8NUQ6 whole entry) with Q500R

[7] = molecular target: T3, 4,4'-diapophytoene desaturase (4,4'-diaponeurosporene-forming) (Staphylococcus aureus (strain Newman)) (UniProt O07855); experiment: Inhibition of CrtN in Staphylococcus aureus Newman assessed as H2O2-induced bacterial death by measuring reduction in bacterial survival at 1 uM pretreated for 24 hrs followed by H2O2 addition measured after 30 mins by serial dilution method; settings: Staphylococcus aureus subsp. aureus str. Newman
T3 sequence (whole entry): T1 sequence (Q8NUQ6 whole entry) with Q500R

[8] = molecular target: T2, 4,4'-diapophytoene desaturase (4,4'-diaponeurosporene-forming); experiment: Inhibition of Staphylococcus aureus Newman […]-tagged CrtN expressed in Escherichia coli BL21(DE3))/pET28a::CrtN assessed as reduction in staphyloxanthin levels using diapophytoene as substrate after overnight incubation; parameters: species or system Staphylococcus aureus subsp. aureus str. Newman
Staphylococcus aureus [9] = experiment: Antibacterial activity against Staphylococcus aureus Newman infected in BALB/c mouse assessed as reduction of bacterial burden in liver at 0.4 mg, ip bid administered at 12 hrs prior to bacterial infection dosed at 12 intervals for 4.5 days relative to control; assay type: functional; parameters: scale not given: the % may be the effect or the level left
Staphylococcus aureus [10] = experiment: Antibacterial activity against vancomycin-intermediate Staphylococcus aureus Mu50 infected in BALB/c mouse assessed as reduction of bacterial burden in heart at 0.1 mg, ip bid for 3.5 days administered 6 hrs post bacterial infection measured 84 hrs post infection relative to control; assay type: functional; parameters: scale not given: the % may be the effect or the level left
Staphylococcus aureus [11] = experiment: Growth inhibition of methicillin-resistant Staphylococcus aureus USA300 LAC at 0.2 mM incubated overnight measured at 30 mins interval; assay type: organism-based; settings: 0.5 h, 200 µM
Staphylococcus aureus [12] = experiment: Induction of sensitization to immune clearance towards Staphylococcus aureus USA300 LAC infected in human whole blood assessed as bacterial killing by measuring bacterial survival after 6 hrs by serial dilution method relative to control; assay type: functional
Staphylococcus aureus [13] = experiment: Growth inhibition of vancomycin-intermediate Staphylococcus aureus Mu50 at 0.2 mM incubated overnight measured at 30 mins interval; assay type: organism-based; settings: 0.5 h, 200 µM
Staphylococcus aureus [14] = experiment: Antibacterial activity against vancomycin-intermediate Staphylococcus aureus Mu50 infected in BALB/c mouse assessed as reduction of bacterial burden in heart at 0.4 mg, ip bid for 3.5 days administered 6 hrs post bacterial infection measured 84 hrs post infection relative to control; assay type: functional; parameters: scale not given: the % may be the effect or the level left
[15] = molecular target: T4, 4,4'-diapophytoene desaturase (4,4'-diaponeurosporene-forming) (Staphylococcus aureus (strain Mu50 / ATCC 700699), UniProt Q99R76); experiment: Inhibition of CrtN in vancomycin-intermediate Staphylococcus aureus Mu50 assessed as reduction in staphyloxanthin levels after 48 hrs by spectrophotometric method-based pigment inhibition assay; parameters: species or system Staphylococcus aureus subsp. aureus Mu50
T4 sequence (Q99R76 whole entry): T1 sequence (Q8NUQ6 whole entry) with Q500R

Staphylococcus aureus [16] = experiment: Growth inhibition of Staphylococcus aureus Newman at 0.2 mM incubated overnight measured at 30 mins interval; assay type: organism-based; settings: 0.5 h, 200 µM
Staphylococcus aureus [17] = experiment: Antibacterial activity against vancomycin-intermediate Staphylococcus aureus Mu50 infected in BALB/c mouse assessed as reduction of bacterial burden in liver at 0.4 mg, ip bid administered at 12 hrs prior to bacterial infection dosed at 12 intervals for 4.5 days; assay type: functional, organism-based
Staphylococcus aureus [18] = experiment: Antibacterial activity against vancomycin-intermediate Staphylococcus aureus Mu50 infected in BALB/c mouse assessed as reduction of bacterial burden in liver at 0.4 mg, ip bid for 3.5 days administered 6 hrs post bacterial infection measured 84 hrs post infection; assay type: functional, organism-based
Staphylococcus aureus [19] = experiment: Antibacterial activity against linezolid-resistant Staphylococcus aureus NRS271 infected in BALB/c mouse assessed as reduction of bacterial burden in heart at 0.1 mg, ip bid administered at 24 hrs prior to bacterial infection dosed at 12 intervals for 4.5 days
Staphylococcus aureus [20] = experiment: Antibacterial activity against linezolid-resistant Staphylococcus aureus NRS271 infected in BALB/c mouse assessed as log reduction of colony forming units in liver at 0.1 mg, ip bid for 3.5 days administered 6 hrs post bacterial infection measured 84 hrs post infection; assay type: functional

Compound `CN(C/C=C/C=C/c1ccc(C(F)(F)F)cc1)Cc1ccc2c(c1)OCCO2.Cl` has an IC50 [1] of 6.5 nM, a Survival (Staphylococcus aureus [2]) of less than 0.5% and a Survival (Staphylococcus aureus [3]) of less than 0.5%. For the same compound, the IC50 [4] was 5.5 nM, the Activity (Staphylococcus aureus [5]) was “Active” and the IC50 [6] was 0.6 nM. The inhibition [7] was “Active”, the IC50 [8] was 270 nM and the Activity (Staphylococcus aureus [9]) was 86.7%. For the same compound, the Activity (Staphylococcus aureus [10]) was 99%, the “growth inhibition (GI)” value (Staphylococcus aureus [11]) was “Non-Toxic” and the Survival (Staphylococcus aureus [12]) was less than 0.5%. For the same compound, the “growth inhibition (GI)” value (Staphylococcus aureus [13]) was “Non-Toxic”, the Activity (Staphylococcus aureus [14]) was 99% and the IC50 [15] was less than 0.1 nM. For the same compound, the “growth inhibition (GI)” value (Staphylococcus aureus [16]) was “Non-Toxic”, the Activity (Staphylococcus aureus [17]) was “Active” and the Activity (Staphylococcus aureus [18]) was “Active”. The Activity (Staphylococcus aureus [19]) was “Active” and the Activity (Staphylococcus aureus [20]) was “<=0.75 log10CFU”.

Reference: ChEMBL document CHEMBL4251700, “Novel Staphyloxanthin Inhibitors with Improved Potency against Multidrug Resistant Staphylococcus aureus” (ACS Med Chem Lett, 2018)
